Measurements from PMC8757608 (Journal of Enzyme Inhibition and Medicinal Chemistry, 2022).

Legend:
[1] = test system: HL60(TB) (leukemia); test: NCI-60 single dose screen, HL60; type: cell-based; settings: Homo sapiens, HL-60, read-out: percent growth inhibition
[2] = test system: K-562 (leukemia); test: NCI-60 single dose screen, K-562; type: cell-based; settings: Homo sapiens, K562, read-out: percent growth inhibition

`Cc1cc(=O)[nH]c(=O)n1Cc1cn(-c2c3ccccc3nc3ccccc23)nn1` [Compound 8, 1-((1-(Acridin-9-yl)-1H-1,2,3-triazol-4-yl)methyl)-6-methylpyrimidine-2,4(1H,3H)-dione] gave an inhibition at 10 µM [1] of 92.9% and an inhibition at 10 µM [2] of 83.7%.
